Patent US10711006B2, “Selective Bruton's tyrosine kinase inhibitor and use thereof” (HANGZHOU HERTZ PHARMACEUTICAL CO., LTD., priority 2016, dated 2020)

Experiments:
[1] = target: BTK Kinase (Homo sapiens (Human), UniProt Q06187); assay: In-vitro Btk kinase inhibitory activity assay; type: biochemical
Experimental: In-Vitro Btk Kinase Inhibitory Activity Assay for Compounds of the Present Invention:
10 μL of the 50× drug stock solution was added to a 96-well plate and then 90 μL of a 1× Kinase Buffer was added and the 96-well plate was shaken for 10 minutes on a shaker. From each well of the 96-well plate, 5 μL of the drug solution was taken and then transferred to a 384-well plate which was provided with 2 duplicate wells.
Preparation of a 2.5× Kinase Buffer: an enzyme was added to the 1× kinase base buffer.
Prepare a 2.5× oligopeptide solution: FAM-labeled oligopeptide and ATP were added to the 1× kinase base buffer.
10 μL of the 2.5× Kinase Buffer was added to the 384-well plate loaded with 5 μL of the drug solution and incubation was then carried out for 10 minutes at room temperature. 10 μL of the 2.5× oligopeptide solution was added to the 384-well plate and incubation was then carried out for 1 hour at 28° C. The reaction was stopped by adding 25 μL of a stop buffer. The readings were recorded and the inhibition rate of the compound on the enzyme was calculated. The IC50 of BTK kinase was calculated by fitting.

[2] = Oral pharmacokinetic experiment in SD rats; type: in vivo; details: mean n = 3
Experimental: SD rats were used as experimental animals and were subjected to intragastric administration in a dose of 10 mg/kg and tail-vein intravenous injection in a dose of 2 mg/kg. The tail-vein blood sampling time points in the intragastric administration were 0.17, 0.33, 0.5, 1, 1.5, 2, 4, 6, 8, 12, and 24 hours; the blood sampling time points in the intravenous administration were 0.05, 0.1, 0.17, 0.5, 1, 2, 4, 6, 8, 12, and 24 hours. 0.3 ml of whole blood was taken, and 0.1 ml of plasma after centrifugation was taken and analyzed by LC-MS.

[3] = tested on: Mino subcutaneous xenograft tumor; assay: In-vivo pharmacodynamic study on Mino subcutaneous xenograft tumor models; details: CB17 SCID mice, intragastric, twice a day
Experimental: In CB17 SCID mice, 0.2 mL of cell suspension containing 5×10^6 Mino cells was subcutaneously inoculated into the right back of each mouse, and when the mean tumor volume reaches approximately 139.94 mm3 (day 26 after inoculation), group administration was started (intragastric administration, twice a day, 14 days in total). Animals were monitored daily for health and mortality, and tumor diameters were measured twice a week using vernier calipers to see if tumor growth could be inhibited, delayed, or cured.

[4] = tested on: arthritis induced by anti-collagen antibodies and lipopolysaccharides; assay: Rheumatoid arthritis model induced by anti-collagen antibodies and lipopolysaccharides; type: in vivo, Balb/c mice; details: for level of IL-1β in serum (in words): 10 mg/kg orally once a day; for level of IL-1β in serum (in words) / inflammatory cell infiltration, synovial hyperplasia, inflammatory granulation tissue formation, necrotic tissue: versus model group; for IL-1β: serum on Day 13, 10 mg/kg orally once a day Day 2 to Day 12; for inflammatory cell infiltration, synovial hyperplasia, inflammatory granulation tissue formation, necrotic tissue: tissue samples after treatment
Experimental: In Balb/c mice, arthritis was induced by administration of anti-collagen antibodies and lipopolysaccharides (Nandakumar et al., Am. J. Pathol. 2003, 163: 1827-1837).
The specific method was as follows: On Day 0, female Balb/c mice were intravenously injected with anti-type II collagen ChemicomAb mixture in a dose of 100 mg/kg, and on Day 1, lipopolysaccharide was intraperitoneally injected in a dose of 1.25 mg/kg. From Day 2 to Day 12, Compounds 15a, 17a, 24a and 24e were orally administered once a day in a dose of 10 mg/kg. On Day 13 after abdominal anesthesia, […] of blood was taken from the femoral artery and centrifuged at 3000 r/min for 20 minutes, serum was taken to detect IL-1β with a test kit, and related tissue samples were observed.

[5] = tested on: human lung cancer cell (A549); assay: In-vitro tumor cell proliferation inhibition (CCK-8), A549; details: A549, 72 h, read-out: Tumor cell proliferation inhibitory activity (IC50, μM) A549
Experimental: (§11) The in-vitro antitumor activity assay was carried out on the synthesized compound by using different solid tumors and leukemia cell lines:
(§12) Cell lines: human lung cancer cell (A549), human mantle cell lymphoma (MINO), diffuse giant B-cell lymphoma (OCI-LY10), and human diffuse large B lymphoma (TMD-8).
(§13) Preparation method of the drug: the drug was dissolved in DMSO to make a 10 mM stock solution, and then the stock solution was diluted in a certain ratio to obtain 5 different concentrations (test concentration 100×). In-vitro culture of tumor cells:
(§14) The tumor cells A549, MINO, OCI-LY10, and TMD-8 were seeded in a 96-well plate at 4000 cells/200 μL/well and then incubated overnight at 37° C. in a 5% CO2 cell culture incubator. 2 μL of the compound was added to each well to final concentrations of 50 μM, 10 μM, 2 μM, 0.4 μM, and 0.08 μM and then incubated for 72 hours at 37° C. in a 5% CO2 cell incubator, with DMSO (2%) as a control group. […] Wells loaded with the corresponding amount of cell culture fluid the and CCK-8 solution but no cells were considered as blank controls. The absorbance (OD value) was measured at 450 nm using a microplate reader, and the obtained data was used to calculate IC50.

[6] = tested on: human mantle cell lymphoma (MINO); assay: In-vitro tumor cell proliferation inhibition (CCK-8), MINO; details: 72 h, read-out: Tumor cell proliferation inhibitory activity (IC50, μM) MINO
Experimental: as §11, §12, §13, §14

[7] = tested on: human diffuse large B lymphoma (TMD-8); assay: In-vitro tumor cell proliferation inhibition (CCK-8), TMD-8; details: TMD8, 72 h, read-out: Tumor cell proliferation inhibitory activity (IC50, nM) TMD-8
Experimental: as §11, §12, §13, §14

[8] = tested on: diffuse giant B-cell lymphoma (OCI-LY10); assay: In-vitro tumor cell proliferation inhibition (CCK-8), OCI-LY10; details: Homo sapiens, OCI-Ly10, 72 h, read-out: Tumor cell proliferation inhibitory activity (IC50, nM) OCI-LY10
[9] = target: hERG potassium channel (Homo sapiens (Human), UniProt Q12809); assay: hERG potassium channel inhibitory activity, manual patch clamp in CHO cells; type: cell-based; details: CHO cells stably expressing hERG, whole-cell patch clamp
Experimental: The cells used in this experiment were CHO cell lines transfected with HergCdna and stably expressing Herg channels (supplied by Sophion Bioscience, Denmark). The cells were cultured in a medium containing the following components (all from Invitrogen): Ham's F12 medium, 10% (v/v) inactivated fetal bovine serum, 100 μg/ml hygromycin B, 100 μg/ml Geneticin. […] 24 to 48 hours before an electrophysiological experiment, CHO Herg cells were transferred to circular slides placed in the culture dishes and grow with the same culture liquid under the same culture conditions as above. The density of CHO Herg cells on each circular slide was required to reach such a value that most cells were independent and stand alone.
2. Treatment and Dilution of a Compound
Before the test, the compound was first diluted with DMSO at gradient to make stock solutions with concentrations of 10, 3, 1, 0.3 and 0.1 Mm and the stock solutions were then diluted with extracellular fluid to a final Mm test concentration. Except that the DMSO concentration in the 30 Mm compound test solution was 0.3%, the final concentration of DMSO in each of the compound solutions with other concentrations was 0.1%. The test concentration of a positive control Cisapridewas 0.1 Mm. All compound solutions were conventionally sonicated and shaken for 5 to 10 minutes to ensure complete dissolution of the compound.
3. Electrophysiological Recording System and Data Analysis
This experiment uses a manual patch clamp system (HEKA EPC-10 signal amplifier and digital conversion system, purchased from HEKA Electronics, Germany) for the recording of whole cell currents. The circular slides with CHO Herg cells growing on the surfaces were placed in an electrophysiological recording slot under an inverted microscope. The extracellular fluid was used for continuous perfusion in the recording slot (approximately lml per minute). The experimental procedure uses a conventional whole-cell patch clamp current recording technique. Unless otherwise stated, the experiment was carried out at regular room temperature ([…]). The cells were clamped at a voltage of −80 Mv. The cell clamp voltage was depolarized to +20 Mv to activate the Herg potassium channel, and 5 seconds later, it was clamped to −50 Mv to eliminate inactivation and generate tail current. The peak of the tail current was used as the value of the Herg current. After the hERG potassium current recorded in the above step was stabilized under the continuous extracellular fluid perfusion in the recording slot, the drug to be tested can be superimposed to the perfusion until the inhibitory effect of the drug on the hERG current reaches a steady state. Generally, the criterion for determine whether or not the stable state was reached was that the recent three consecutive current recording lines were coincident. After the steady state was reached, extracellular fluid perfusion was carried out for flushing until the hERG current returns to the magnitude before the drug was added. One cell may be used for testing one or more drugs, or multiple concentrations of the same drug, and flushing with extracellular fluid was carried out between tests of different drugs. Cisapride (purchased from Sigma) was used in the experiment as a positive control to ensure that the cells used were of normal quality. The test data was analyzed by data analysis software provided by HEKA Patchmaster, Microsoft Excel and Graphpad Prism.

[10] = target: ITK (Homo sapiens (Human), UniProt Q08881); assay: Kinase selectivity experiment, ITK; type: biochemical; details: read-out: Inhibitory activity against ITK (IC50)
Sequence of ITK (Q08881 whole entry, species assumed): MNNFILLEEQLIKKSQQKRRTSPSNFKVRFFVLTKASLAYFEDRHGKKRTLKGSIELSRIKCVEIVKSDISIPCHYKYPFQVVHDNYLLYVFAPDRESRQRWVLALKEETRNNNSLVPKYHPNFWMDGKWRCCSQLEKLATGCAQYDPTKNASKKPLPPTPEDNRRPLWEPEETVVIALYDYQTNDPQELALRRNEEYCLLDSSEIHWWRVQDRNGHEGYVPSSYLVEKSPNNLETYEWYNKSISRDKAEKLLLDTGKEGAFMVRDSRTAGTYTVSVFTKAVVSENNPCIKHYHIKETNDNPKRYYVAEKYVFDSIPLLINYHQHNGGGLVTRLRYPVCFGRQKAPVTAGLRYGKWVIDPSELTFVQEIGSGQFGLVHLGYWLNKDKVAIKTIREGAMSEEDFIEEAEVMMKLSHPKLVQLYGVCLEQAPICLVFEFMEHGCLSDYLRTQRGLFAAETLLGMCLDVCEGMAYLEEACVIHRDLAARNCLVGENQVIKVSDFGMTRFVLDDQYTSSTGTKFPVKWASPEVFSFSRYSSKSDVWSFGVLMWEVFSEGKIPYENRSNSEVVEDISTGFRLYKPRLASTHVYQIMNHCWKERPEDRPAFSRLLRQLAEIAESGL
Experimental: (§1) A 1× kinase base buffer and a reaction stop buffer for respective kinases in the experiment were prepared as required.
(§2) Preparation of Compounds to be Tested:
(§3) 2) diluting each compound at a 5-fold concentration gradient in a 96-well plate to 6 to 7 concentrations and ensuring that the drug volume in each well was 10 μl; and at the same time adding 100 μl of DMSO to prepare a blank control group and also preparing a negative control group without the enzyme substrate; and
(§4) 3) preparing another 96-well plate, adding 10 μl of each of the above compounds to 90 μl of the 1× kinase base buffer and mixing for 10 minutes to be uniform.
(§5) Preparation of the Plate to be Tested:
(§6) 1) 5 μl of the mixed solution prepared as above in the 96-well plate was taken and transferred to a 384-well plate, with two replicate wells for each compound.
(§7) 1) Preparing a 2.5× kinase solution and adding a corresponding 1× kinase base buffer;
(§8) 2) preparing a 2.5× polypeptide solution and adding FAM-labeled polypeptide and ATP in the 1× kinase base buffer; and
(§9) 3) adding 10 μl of 2.5× kinase solution to a 384-well plate to be tested, placing in a room-temperature environment for 10 minutes, and then adding 10 μl of the 2.5× polypeptide solution, reacting at 28° C. for 1 hour, and then adding 25 μl of a reaction stop buffer.
(§10) The Caliper program reads the plate and uses the data to obtain the IC50 values of the corresponding compounds against kinases.

[11] = target: BLK (Homo sapiens (Human), UniProt P51451); assay: Kinase selectivity experiment, BLK; type: biochemical; details: read-out: Inhibitory activity against BLK (IC50)
Sequence of BLK (P51451 whole entry, species assumed): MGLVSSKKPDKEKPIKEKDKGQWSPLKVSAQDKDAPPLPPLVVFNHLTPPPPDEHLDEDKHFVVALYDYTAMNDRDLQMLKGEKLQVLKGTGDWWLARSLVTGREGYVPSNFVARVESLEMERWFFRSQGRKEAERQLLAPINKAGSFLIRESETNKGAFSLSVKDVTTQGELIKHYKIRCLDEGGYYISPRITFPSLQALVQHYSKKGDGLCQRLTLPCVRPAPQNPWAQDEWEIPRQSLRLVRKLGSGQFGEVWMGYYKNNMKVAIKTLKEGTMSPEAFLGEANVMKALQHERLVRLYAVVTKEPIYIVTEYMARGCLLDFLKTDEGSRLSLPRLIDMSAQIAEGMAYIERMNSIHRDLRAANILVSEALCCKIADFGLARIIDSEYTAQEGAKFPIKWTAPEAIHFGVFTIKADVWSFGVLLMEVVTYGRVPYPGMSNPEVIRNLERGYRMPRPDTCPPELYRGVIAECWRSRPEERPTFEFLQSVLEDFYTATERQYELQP
Experimental: as §1, §2, §3, §4, §5, §6, §7, §8, §9, §10

[12] = target: CSK (Homo sapiens (Human), UniProt P41240); assay: Kinase selectivity experiment, CSK; type: biochemical; details: read-out: Inhibitory activity against CSK (IC50)
Experimental: as §1, §2, §3, §4, §5, §6, §7, §8, §9, §10

[13] = target: FGR (Homo sapiens (Human), UniProt P09769); assay: Kinase selectivity experiment, FGR; type: biochemical; details: read-out: Inhibitory activity against FGR (IC50)
Sequence of FGR (P09769 whole entry, species assumed): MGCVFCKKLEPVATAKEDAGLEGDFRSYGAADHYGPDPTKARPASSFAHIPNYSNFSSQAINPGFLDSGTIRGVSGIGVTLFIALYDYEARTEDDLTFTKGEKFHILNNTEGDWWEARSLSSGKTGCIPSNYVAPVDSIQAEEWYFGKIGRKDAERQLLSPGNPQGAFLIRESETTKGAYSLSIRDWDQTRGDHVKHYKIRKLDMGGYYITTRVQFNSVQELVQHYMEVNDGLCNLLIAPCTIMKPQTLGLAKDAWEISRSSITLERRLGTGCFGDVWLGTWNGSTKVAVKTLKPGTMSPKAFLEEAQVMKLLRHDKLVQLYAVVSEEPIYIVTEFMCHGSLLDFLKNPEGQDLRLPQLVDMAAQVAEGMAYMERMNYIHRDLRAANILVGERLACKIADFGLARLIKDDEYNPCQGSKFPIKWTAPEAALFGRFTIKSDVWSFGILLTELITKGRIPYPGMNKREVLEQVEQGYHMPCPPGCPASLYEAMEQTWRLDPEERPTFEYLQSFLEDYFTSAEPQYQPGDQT
Experimental: as §1, §2, §3, §4, §5, §6, §7, §8, §9, §10

[14] = target: HCK (Homo sapiens (Human), UniProt P08631); assay: Kinase selectivity experiment, HCK; type: biochemical; details: read-out: Inhibitory activity against HCK (IC50)
Sequence of HCK (P08631 whole entry, species assumed): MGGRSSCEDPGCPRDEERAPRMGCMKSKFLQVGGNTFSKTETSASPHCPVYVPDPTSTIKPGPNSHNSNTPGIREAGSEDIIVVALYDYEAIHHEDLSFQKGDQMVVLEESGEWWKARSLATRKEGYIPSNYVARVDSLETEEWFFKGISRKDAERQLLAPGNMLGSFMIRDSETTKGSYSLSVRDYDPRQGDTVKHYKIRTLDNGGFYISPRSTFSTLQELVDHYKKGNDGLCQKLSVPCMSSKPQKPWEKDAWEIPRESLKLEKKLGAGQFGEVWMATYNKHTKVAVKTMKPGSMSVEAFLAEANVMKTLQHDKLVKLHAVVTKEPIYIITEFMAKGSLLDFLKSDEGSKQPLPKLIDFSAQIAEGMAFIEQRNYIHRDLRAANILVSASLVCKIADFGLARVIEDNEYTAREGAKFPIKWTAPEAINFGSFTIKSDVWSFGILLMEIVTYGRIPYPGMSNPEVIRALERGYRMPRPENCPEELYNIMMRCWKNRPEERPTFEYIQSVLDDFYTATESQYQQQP
Experimental: as §1, §2, §3, §4, §5, §6, §7, §8, §9, §10

[15] = target: JAK3 (Homo sapiens (Human), UniProt P52333); assay: Kinase selectivity experiment, JAK3; type: biochemical; details: read-out: Inhibitory activity against JAK3 (IC50)
Sequence of JAK3 (P52333 whole entry, species assumed): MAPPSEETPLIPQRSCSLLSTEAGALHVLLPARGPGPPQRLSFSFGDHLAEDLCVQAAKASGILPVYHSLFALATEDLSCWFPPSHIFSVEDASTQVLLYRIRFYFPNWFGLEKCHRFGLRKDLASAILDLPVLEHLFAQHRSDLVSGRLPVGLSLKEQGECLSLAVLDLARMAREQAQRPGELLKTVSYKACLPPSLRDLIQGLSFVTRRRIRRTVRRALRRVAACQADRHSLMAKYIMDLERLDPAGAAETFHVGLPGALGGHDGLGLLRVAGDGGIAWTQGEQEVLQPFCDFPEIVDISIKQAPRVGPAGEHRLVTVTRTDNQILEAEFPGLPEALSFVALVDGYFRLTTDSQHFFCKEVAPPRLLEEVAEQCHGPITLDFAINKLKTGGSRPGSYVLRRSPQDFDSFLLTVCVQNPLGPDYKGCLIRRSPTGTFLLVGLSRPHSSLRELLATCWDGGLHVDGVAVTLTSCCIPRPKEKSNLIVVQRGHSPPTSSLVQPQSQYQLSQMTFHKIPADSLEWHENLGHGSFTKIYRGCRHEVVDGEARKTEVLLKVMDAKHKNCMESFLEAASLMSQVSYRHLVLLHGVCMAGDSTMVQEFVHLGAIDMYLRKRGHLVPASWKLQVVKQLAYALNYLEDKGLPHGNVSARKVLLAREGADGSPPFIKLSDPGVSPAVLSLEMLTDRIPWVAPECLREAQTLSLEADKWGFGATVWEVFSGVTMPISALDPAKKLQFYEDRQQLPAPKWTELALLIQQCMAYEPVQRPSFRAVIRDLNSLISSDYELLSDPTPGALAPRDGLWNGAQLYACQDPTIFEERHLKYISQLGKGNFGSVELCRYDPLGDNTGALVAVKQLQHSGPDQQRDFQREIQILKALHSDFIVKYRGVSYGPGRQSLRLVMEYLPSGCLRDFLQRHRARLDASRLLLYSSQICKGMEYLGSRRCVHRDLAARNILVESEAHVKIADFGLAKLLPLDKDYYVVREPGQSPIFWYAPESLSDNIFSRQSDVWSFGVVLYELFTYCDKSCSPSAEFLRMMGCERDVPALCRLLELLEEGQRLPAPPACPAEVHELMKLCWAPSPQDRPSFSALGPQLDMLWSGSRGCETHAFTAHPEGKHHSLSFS
Experimental: as §1, §2, §3, §4, §5, §6, §7, §8, §9, §10

[16] = target: FLT3 (Homo sapiens (Human), UniProt P36888); assay: Kinase selectivity experiment, FLT3; type: biochemical; details: read-out: Inhibitory activity against FLT3 (IC50)
Sequence of FLT3 (P36888 27-993, species assumed): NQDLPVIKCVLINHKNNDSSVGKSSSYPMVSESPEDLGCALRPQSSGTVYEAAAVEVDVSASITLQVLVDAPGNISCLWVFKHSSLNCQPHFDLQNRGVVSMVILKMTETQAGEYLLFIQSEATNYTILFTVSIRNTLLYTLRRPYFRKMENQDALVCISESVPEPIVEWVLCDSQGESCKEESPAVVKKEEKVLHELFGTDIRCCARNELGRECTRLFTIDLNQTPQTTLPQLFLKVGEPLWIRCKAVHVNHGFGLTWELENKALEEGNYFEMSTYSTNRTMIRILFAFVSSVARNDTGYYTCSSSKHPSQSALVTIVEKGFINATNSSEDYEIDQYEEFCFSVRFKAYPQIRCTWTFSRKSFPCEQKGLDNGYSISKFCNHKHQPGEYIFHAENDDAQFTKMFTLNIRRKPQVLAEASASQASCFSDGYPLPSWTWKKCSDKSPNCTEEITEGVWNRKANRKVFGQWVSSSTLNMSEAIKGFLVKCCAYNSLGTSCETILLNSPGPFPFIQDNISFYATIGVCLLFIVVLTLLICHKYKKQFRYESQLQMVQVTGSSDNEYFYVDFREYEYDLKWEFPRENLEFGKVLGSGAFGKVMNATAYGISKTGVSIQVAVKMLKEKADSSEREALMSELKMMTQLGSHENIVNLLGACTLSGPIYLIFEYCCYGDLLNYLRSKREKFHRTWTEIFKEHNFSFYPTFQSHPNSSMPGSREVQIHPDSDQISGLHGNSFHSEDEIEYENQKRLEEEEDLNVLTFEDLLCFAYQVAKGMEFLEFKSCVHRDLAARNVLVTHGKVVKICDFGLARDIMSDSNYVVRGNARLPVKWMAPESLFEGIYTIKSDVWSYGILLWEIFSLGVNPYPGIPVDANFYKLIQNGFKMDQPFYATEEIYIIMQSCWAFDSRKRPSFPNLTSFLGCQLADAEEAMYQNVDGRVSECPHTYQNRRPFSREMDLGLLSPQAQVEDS
Experimental: as §1, §2, §3, §4, §5, §6, §7, §8, §9, §10

[17] = rat, plasma, oral (intragastric) 10 mg/kg

Sequence of BTK Kinase (Q06187 whole entry): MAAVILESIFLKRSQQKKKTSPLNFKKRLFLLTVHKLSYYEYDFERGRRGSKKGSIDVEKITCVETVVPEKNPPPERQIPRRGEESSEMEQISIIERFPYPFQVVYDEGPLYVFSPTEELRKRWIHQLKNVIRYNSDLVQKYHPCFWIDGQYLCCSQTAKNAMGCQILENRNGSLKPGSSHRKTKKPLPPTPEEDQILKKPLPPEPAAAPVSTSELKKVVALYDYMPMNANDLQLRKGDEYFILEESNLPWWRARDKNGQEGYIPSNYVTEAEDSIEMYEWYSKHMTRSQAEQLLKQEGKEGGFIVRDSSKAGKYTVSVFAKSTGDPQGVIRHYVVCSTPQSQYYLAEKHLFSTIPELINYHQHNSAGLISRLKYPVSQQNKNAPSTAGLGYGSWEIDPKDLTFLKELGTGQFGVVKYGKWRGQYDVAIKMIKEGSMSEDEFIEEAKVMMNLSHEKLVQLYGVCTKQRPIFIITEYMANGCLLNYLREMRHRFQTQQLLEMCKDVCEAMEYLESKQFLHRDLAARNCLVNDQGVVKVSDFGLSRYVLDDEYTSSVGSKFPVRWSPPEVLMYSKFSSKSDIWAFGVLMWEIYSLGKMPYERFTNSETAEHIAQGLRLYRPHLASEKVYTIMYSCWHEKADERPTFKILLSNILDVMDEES

SMILES	TGI*(14 days) (%) calculated on the basis of tumor volume [3] [%]	TGI**(14 days) (%) calculated on the basis of tumor weight [3] [%]	level of IL-1β in serum (in words) [4]	IL-1β [4] [ng/L]	inflammatory cell infiltration, synovial hyperplasia, inflammatory granulation tissue formation, necrotic tissue [4]	IC50 [5] [µM]	IC50 [6] [µM]	IC50 [7] [nM]	IC50 [8] [nM]	further results
C=CC(=O)N1CC[C@@H](n2nc(-c3ccc(Oc4cccc(F)c4F)nc3F)c3c(N)ncnc32)C1 [Compound 24e, (R)-1-(3-(4-amino-3-(6-(2,3-difluorophenoxy)-2-fluoropyridin-3-yl)-1H-pyrazolo[3,4-d]pyrimidin-1-yl)pyrrolidin-1-yl)prop-2-en-1-one]	68.04	62.16	significantly reduce	20.45 ± 5.1	significantly improved	1.93	8.98	7.13	4.02	IC50 [1]: 1.8 nM; AUC0-C(ng/h/mL) ([2]; oral (intragastric) 10 mg/kg): 1620 ng·h/mL; AUC0-t (ng/h/mL) ([2]; oral (intragastric) 10 mg/kg): 1600 ng·h/mL; bioavailability ([2]; rat, plasma, oral 10 mg/kg vs intravenous 2 mg/kg): 46.1%; Cmax [2, 17]: 1440 ng/mL; Tmax [2, 17]: 0.25 h; half-life [2, 17]: 3.57 h
C=CC(=O)N1CCC[C@@H](n2nc(-c3ccc(Oc4ccccc4)nc3F)c3c(N)ncnc32)C1 [Compound 17a, (R)-1-(3-(4-amino-3-(2-fluoro-6-phenoxypyridin-3-yl)-1H-pyrazolo[3,4-d]pyrimidin-1-yl)piperidin-1-yl)prop-2-en-1-one]	82.54	74.05	significantly reduce	17.25 ± 3.9	significantly improved	1.67	8.62	5.57	1.41	IC50 [9]: 7800 nM; IC50 [10]: > 1000 nM; IC50 [11]: 11 nM; IC50 [12]: > 1000 nM; IC50 [13]: > 1000 nM; IC50 [14]: > 1000 nM; IC50 [15]: > 1000 nM; IC50 [16]: > 1000 nM
